Positions of bridges follow the written chain, without caps; N, C: chain ends. Non-standard residues stand in square brackets, D forms with d. Residues, ends and D or L forms follow the SMILES beside them. *: point of attachment. boroAla((+)-pinanediol) = C[C@H](N*)B1O[C@@H]2C[C@@H]3C[C@@H](C3(C)C)[C@]2(C)O1; Biphenylcarbonyl(4'-Bu) = CCCCc1ccc(-c2ccc(C(=O)*)cc2)cc1; Aad = N[C@@H](CCCC(=O)O)C(=O)O; Orn = NCCC[C@H](N)C(=O)O
How the values were obtained:
[1] = test system: Methicillin Resistant Staphylococcus aureus strain USA 300 (NRS384); assay: MIC by broth micro-dilution (CLSI), S. aureus; format: cell-based; conditions: Staphylococcus aureus, MRSA / NRS 384 / USA300; MRSA USA 300 (NRS384); cation adjusted Mueller Hinton Broth + 0.002% Tween-80; 35° C., 22 hours; read-out: MIC (μg/mL) S. aureus
Protocol: In vitro antimicrobial activity of each compound was determined by measuring minimal inhibitor concentrations (MICs) using the broth micro-dilution technique as approved by the Clinical and Laboratory Standards Institute (CLSI) (Methods for Dilution Antimicrobial Susceptibility Tests for Bacteria that Grow Aerobically; Approved Standard—Eighth Edition. CLSI document M07-A8. Wayne, Pa.: Clinical and Laboratroy Standards; 2009). Antibacterial activity was measure against two strains of bacteria: a Methicillin Resistant Staphylococcus aureus strain USA 300 (NRS384) and a strain of Escherichia coli MC4100 harboring the IMP4213, which results in increased outer-membrane permeability (B Martin and Silhavy T. Imp/OstA is required for cell envelope biogenesis in Escherichia coli. (2002) Molecular Microbiology, 45(5), 1289-1302). Cells were inoculated onto plates of Trypyticase Soy Agar or Luria Agar respectively and grown at 35° C. for 20 hours. Inocula suspensions were prepared by scraping cells into 1 ml of testing media (cation adjusted Mueller Hinton Broth supplemented with 0.002% v/v Tween-80) and diluting to a final OD600 nm of 0.01.
Test compounds were prepared in DMSO at a concentration of 10 mg/ml. These compound stocks were diluted into testing media at a concentration of 64 μg/ml and serial 2-fold dilutions were made in the same media, in 96-well U bottom microtiter dishes, for a total of 10 compound concentrations. Inocula suspensions were added to the 2-fold serial dilutions of test compounds to a final density of OD OD600 nm of 0.0005 and incubated at 35° C. for 22 hours.

[2] = biological target: T1, E. coli SPase (Escherichia coli, UniProt P00803); assay: SPase enzyme inhibition assay, fluorogenic peptide substrate, E. coli; format: biochemical; conditions: 3 nM E. coli SPase, 20 μM substrate, 10 minutes pre-incubation, room temperature; read-out: IC 50 (nM) E. coli
T1 construct: Full length His-tagged E. coli and S. aureus SPase proteins were expressed in E. coli BL21; His tag; made in house; host or cells: E. coli BL21 (DE3)
Protocol: (§1) Briefly, for expression of E. coli SPase, saturated overnight cultures grown in 20 ml of Luria-Bertani medium supplemented with ampicillin were subcultures into 1.5 L of Luria-Bertani, and shaken at 37° C. until an optical density at 600 nm of 0.4-0.5 was achieved. […] S. aureus SPase was expressed and purified similarly, with the following exceptions. […] Resin bound protein was washed in a similar buffer containing 1% Elugent in place of Triton X-100 prior to protein elution in wash buffer supplemented with 300 mM imidazole. […] All protein concentrations were determined by BCA assay.
(§2) Enzyme master solution was prepared by diluting Escherichia coli or Staphylococcus aureus SPase protein into reaction buffer to a final concentration of 3 nM or 10 nM respectively. Reaction buffer consisted of 20 mM NaKHPO4 pH 7.4, 100 mM NaCl, and 1% v/v Elugent™ detergent. Reactions were initiated by the addition of substrate to a final concentration of 20 μM. Reaction progress was monitored by measuring the increase in fluorescence signal (excitation at 314 nm, emission at 416 nm) using a SpectraMax M2 fluorescence microplate reader. […] Three-folder serial dilutions of test compounds, starting at 10 μM, were prepared in enzyme mix solution and incubated at room temperature for 10 minutes. Following this incubation, fluorogenic substrate was added to a final concentration of 20 μM and the increase in fluorescence, corresponding to substrate cleavage, was monitored continuously at room temperature for 1 hour. Initial reaction rates were calculated based on the rate of increase in fluorescence during the reaction. Reaction rates were plotted as a function of compound concentration, and IC50 values were determined nonlinear regression analysis (SoftMaxPro 5.4, Molecular Devices™) of the sigmoidal dose-response curve.

[3] = biological target: T2, S. aureus SPase (Staphylococcus aureus, UniProt P0A070); assay: SPase enzyme inhibition assay, fluorogenic peptide substrate, S. aureus; format: biochemical
T2 construct: Full length His-tagged E. coli and S. aureus SPase proteins were expressed in E. coli BL21; His tag; made in house; host or cells: E. coli BL21 (DE3)
T2 sequence (P0A070 1-191): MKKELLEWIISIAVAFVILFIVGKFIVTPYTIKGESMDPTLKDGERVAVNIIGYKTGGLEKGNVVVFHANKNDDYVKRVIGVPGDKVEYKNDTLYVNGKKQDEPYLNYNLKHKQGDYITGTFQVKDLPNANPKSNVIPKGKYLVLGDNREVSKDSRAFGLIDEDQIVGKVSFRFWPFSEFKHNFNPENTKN
Protocol: as §1, §2

T1 sequence (P00803 whole entry): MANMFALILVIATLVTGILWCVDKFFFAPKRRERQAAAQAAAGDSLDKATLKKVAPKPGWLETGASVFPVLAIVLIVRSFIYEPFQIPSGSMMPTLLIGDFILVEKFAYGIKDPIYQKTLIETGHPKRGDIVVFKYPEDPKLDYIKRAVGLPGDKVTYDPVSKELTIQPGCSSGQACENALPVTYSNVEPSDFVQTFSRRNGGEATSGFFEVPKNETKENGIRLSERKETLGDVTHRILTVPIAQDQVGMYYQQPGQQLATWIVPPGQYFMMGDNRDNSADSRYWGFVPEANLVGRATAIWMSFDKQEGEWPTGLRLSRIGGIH

For `CCCCc1ccc(-c2ccc(C(=O)NCC(C)C(=O)N[C@@H](CCCCN)C(=O)N(C)[C@@H]3C(=O)N[C@@H](C)C(=O)N[C@H](C(=O)O)Cc4ccc(O)c(c4)-c4cc3ccc4O)cc2)cc1` (mixture of isomers) [Compound 104], the MIC [1] was 4 µg/mL, the IC50 [2] was 3.7 nM and the IC50 [3] was 12 nM.

`CCCCc1ccc(-c2ccc(C(=O)NC(CCCCN)C(=O)N[C@H]3COCCCCOC[C@@H](C(=O)N[C@@H](C)B4O[C@@H]5C[C@@H]6C[C@@H](C6(C)C)[C@]5(C)O4)NC(=O)[C@H](C)NC3=O)cc2)cc1` (mixture of isomers) [Compound 206] gave an MIC [1] of 4 µg/mL, an IC50 [2] of 81 nM and an IC50 [3] of 600 nM.

Compound `CCCCc1ccc(-c2ccc(C(=O)NCC(C)C(=O)N[C@@H](CCN)C(=O)N(C)[C@@H]3C(=O)N[C@@H](C)C(=O)N[C@H](C(=O)O)Cc4ccc(O)c(c4)-c4cc3ccc4O)cc2)cc1` (single isomer, unassigned) [Compound 114] has an MIC [1] of 64 µg/mL, an IC50 [2] of 730 nM and an IC50 [3] of 2200 nM.

`CCCCc1ccc(-c2ccc(CC(=O)NCCC(=O)N[C@@H](CCCCN)C(=O)N(C)[C@@H]3C(=O)N[C@@H](C)C(=O)N[C@H](C(=O)O)Cc4ccc(O)c(c4)-c4cc3ccc4O)cc2)cc1` [Compound 101] showed an MIC [1] of 6.3 µg/mL, an IC50 [2] of 5.4 nM and an IC50 [3] of 30 nM.

With `CCCCc1ccc(-c2ccc(C(=O)N[C@H](C)C(=O)N[C@@H](CCCCN)C(=O)N(C)[C@@H]3C(=O)N[C@@H](C)C(=O)N[C@H](C(=O)O)Cc4ccc(O)c(c4)-c4cc3ccc4O)cc2)cc1` [Compound 102] the MIC [1] was 10 µg/mL, the IC50 [2] was 11 nM and the IC50 [3] was 280 nM.

In the case of `CCCCc1ccc(-c2ccc(C(=O)N[C@@H](CCCCN)C(=O)N(C)[C@@H]3C(=O)N[C@@H](C)C(=O)N[C@H](C(=O)O)Cc4ccc(O)c(c4)-c4cc3ccc4O)cc2)cc1` [Compound 110], the IC50 [2] is reported as 1.4 nM and the IC50 [3] is reported as 350 nM.

Work on `CCCCCCCCCCCCCC(=O)N[C@@H](CCCCN)C(=O)N(C)[C@@H]1C(=O)N[C@@H](C)C(=O)N[C@H](C(=O)O)Cc2ccc(O)c(c2)-c2cc1ccc2O` [Compound 111] yielded an IC50 [2] of 2.2 nM and an IC50 [3] of 160 nM.

With `CCCCCCCCCCCCCC(=O)N[C@@H](CCCCN)C(=O)N(C)[C@@H]1C(=O)N[C@@H](C)C(=O)N[C@H](C(=O)NCB(O)O)Cc2ccc(O)c(c2)-c2cc1ccc2O` [Compound 118] the IC50 [2] was 7.6 nM and the IC50 [3] was 31 nM.

Compound `CCCCCCCCCCCCCC(=O)N[C@@H](CCCCN)C(=O)N(C)[C@@H]1C(=O)N[C@@H](C)C(=O)N[C@H](C(=O)N[C@@H](C)B(O)O)Cc2ccc(O)c(c2)-c2cc1ccc2O` [Compound 119] has an IC50 [2] of 8.6 nM and an IC50 [3] of 33 nM.

For `CCCCc1ccc(-c2ccc(C(=O)NC[C@@H](C)C(=O)N[C@@H](CCCCN)C(=O)N(C)[C@@H]3C(=O)N[C@@H](C)C(=O)N[C@H](C(=O)N[C@@H](C)B4OC5C[C@@H]6C[C@@H](C6(C)C)[C@]5(C)O4)Cc4ccc(O)c(c4)-c4cc3ccc4O)cc2)cc1` (some centres unmarked) [Compound 120], the IC50 [2] was 18 nM and the IC50 [3] was 220 nM.

In the case of `CCCCCCCC(=O)NCCC(=O)N[C@@H](CCCCN)C(=O)N(C)[C@@H]1C(=O)N[C@@H](C)C(=O)N[C@H](C(=O)O)Cc2ccc(O)c(c2)-c2cc1ccc2O` [Compound 122], the IC50 [2] is reported as 27 nM and the IC50 [3] is reported as 130 nM.

With `CCCCCCCC(=O)N[C@@H](CCCCN)C(=O)N(C)[C@@H]1C(=O)N[C@@H](C)C(=O)N[C@H](C(=O)O)Cc2ccc(O)c(c2)-c2cc1ccc2O` [Compound 124] the IC50 [2] was 23 nM and the IC50 [3] was 1000 nM.

`C[C@@H]1NC(=O)[C@@H](N(C)C(=O)[C@H](CCCCN)NC(=O)c2ccc(-c3ccc(Cl)cc3)cc2)c2ccc(O)c(c2)-c2cc(ccc2O)C[C@@H](C(=O)O)NC1=O` [Compound 127] showed an IC50 [2] of 1.4 nM and an IC50 [3] of 440 nM.

For `C[C@@H]1NC(=O)[C@@H](N(C)C(=O)[C@H](CCN)NC(=O)c2ccc(-c3ccc(Cl)cc3)cc2)c2ccc(O)c(c2)-c2cc(ccc2O)C[C@@H](C(=O)O)NC1=O` [Compound 128], the IC50 [2] was 1.5 nM and the IC50 [3] was 3500 nM.

Compound `CCCCCCCC(=O)NCCC(=O)N[C@@H](CCCCN)C(=O)N(C)[C@@H]1C(=O)N[C@@H](C)C(=O)N[C@H](C(=O)N[C@@H](C)C(N)=O)Cc2ccc(O)c(c2)-c2cc1ccc2O` [Compound 129] has an IC50 [2] of 370 nM and an IC50 [3] of 140 nM.

In the case of `CCCCCCCC(=O)NCCC(=O)N[C@@H](CCCCN)C(=O)N(C)[C@@H]1C(=O)N[C@@H](C)C(=O)N[C@H](C(N)=O)Cc2ccc(O)c(c2)-c2cc1ccc2O` [Compound 130], the IC50 [2] is reported as 160 nM and the IC50 [3] is reported as 580 nM.

Work on `CCCCCCCC(=O)NCCC(=O)N[C@@H](CCCCN)C(=O)N(C)[C@@H]1C(=O)N[C@@H](C)C(=O)N[C@H](C(=O)N[C@@H](C)C(=O)N2CCC[C@H]2C(N)=O)Cc2ccc(O)c(c2)-c2cc1ccc2O` [Compound 131] yielded an IC50 [2] of 180 nM and an IC50 [3] of 3.3 nM.

With `CNC(=O)[C@@H]1CCCN1C(=O)[C@H](C)NC(=O)[C@@H]1Cc2ccc(O)c(c2)-c2cc(ccc2O)[C@H](N(C)C(=O)[C@H](CCCCN)NC(=O)c2ccc(-c3ccc(Cl)cc3)cc2)C(=O)N[C@@H](C)C(=O)N1` [Compound 136] the IC50 [2] was 44 nM and the IC50 [3] was 47 nM.

`C[C@@H]1NC(=O)[C@@H](N(C)C(=O)[C@H](CCCCN)NC(=O)c2ccc(-c3ccc(Cl)cc3)cc2)c2ccc(O)c(c2)-c2cc(ccc2O)C[C@@H](C(=O)N[C@@H](C)C(=O)N(C)C)NC1=O` [Compound 137] showed an IC50 [2] of 350 nM and an IC50 [3] of 3100 nM.

Work on `CCCCc1ccc(-c2ccc(C(=O)NC[C@@H](C)C(=O)N[C@@H](CCCCN)C(=O)N(C)[C@@H]3C(=O)N[C@@H](C)C(=O)N[C@H](C(=O)N[C@@H](C)C(=O)N4CCC[C@H]4C(N)=O)Cc4ccc(O)c(c4)-c4cc3ccc4O)cc2)cc1` [Compound 138] yielded an IC50 [2] of 30 nM and an IC50 [3] of 78 nM.

For `CCCCc1ccc(-c2ccc(C(=O)N[C@@H](CCCCN)C(=O)N[C@H]3CCC(=O)NCCCC[C@@H](C(=O)N[C@@H](C)B4O[C@@H]5C[C@@H]6C[C@@H](C6(C)C)[C@]5(C)O4)NC(=O)[C@H](C)NC3=O)cc2)cc1` [Compound 201] ({Biphenylcarbonyl(4'-Bu)}-KEAK-{boroAla((+)-pinanediol)}; lactam 2-4), the IC50 [2] was 15 nM and the IC50 [3] was 150 nM.

For `CCCCc1ccc(-c2ccc(C(=O)N[C@@H](CCCCN)C(=O)N[C@H]3CCC(=O)NCCC[C@@H](C(=O)N[C@@H](C)B4O[C@@H]5C[C@@H]6C[C@@H](C6(C)C)[C@]5(C)O4)NC(=O)[C@H](C)NC3=O)cc2)cc1` [Compound 202] ({Biphenylcarbonyl(4'-Bu)}-KEA[Orn]-{boroAla((+)-pinanediol)}; lactam 2-4), the IC50 [2] was 28 nM and the IC50 [3] was 200 nM.

In the case of `CCCCc1ccc(-c2ccc(C(=O)N[C@@H](CCCCN)C(=O)N[C@H]3CCCC(=O)NCCCC[C@@H](C(=O)N[C@@H](C)B4O[C@@H]5C[C@@H]6C[C@@H](C6(C)C)[C@]5(C)O4)NC(=O)[C@H](C)NC3=O)cc2)cc1` [Compound 203] ({Biphenylcarbonyl(4'-Bu)}-K[Aad]AK-{boroAla((+)-pinanediol)}; lactam 2-4), the IC50 [2] is reported as 8.9 nM and the IC50 [3] is reported as 81 nM.

For `CCCCc1ccc(-c2ccc(C(=O)N[C@@H](CCCCN)C(=O)N(C)[C@@H]3C(=O)N[C@@H](C)C(=O)N[C@H](C(=O)N[C@@H](C)B4O[C@@H]5C[C@@H]6C[C@@H](C6(C)C)[C@]5(C)O4)CCCCCc4cc3ccc4OC)cc2)cc1` [Compound 208], the IC50 [2] was 680 nM and the IC50 [3] was > 10000 nM.

Reference: patent US9309285B2, “Macrocyclic broad spectrum antibiotics” (priority 2012, dated 2016)
